Experimental data from US20210261539A1, “COMPOUND HAVING BET INHIBITORY ACTIVITY AND PREPARATION METHOD AND USE THEREFOR” (Shanghai Haihe Pharmaceutical Co., Ltd., priority 2018, published 2021).

Each compound was assayed against T1, BRD4 BD1 (Homo sapiens, UniProt O60885) (assay: HTRF in vitro enzyme activity assay, inhibition of BRD4 BD1 binding to acetylated H4 peptide). Conditions: IC50 values of the compounds against BRD4 BD1 binding; class symbols A/B/C.
T1 construct: Protein BRD4 BD1 used in the assay was purchased from Active Motif (cat. 31380); purchased Active Motif 31380
Outline: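 Recombinant human BRD4 BD1 (30 nM final) incubated with compound and biotinylated tetra-acetylated H4(1-21) peptide, 30 min at 37 °C; 5-point 1:5 dilution series, 0.1% DMSO final. HTRF read after 3 h at RT with SA-XL665 and Eu(K)-labelled antibody; IC50 derived.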

`CC1C(=O)N(C)c2ccc(N3C(=O)CCC3c3ccccc3)nc2N1C1CC1` (single isomer, unassigned) [Example A1-P2-2, 4-cyclopropyl-1,3-dimethyl-6-(2-oxo-5-phenyl-pyrrolidin-1-yl)-3,4-dihydropyrido[2,3-b]pyrazin-2(1H)-one] and `CC1C(=O)N(C)c2ccc(N3C(=O)CCC3c3ccccn3)nc2N1C1CC1` (single isomer, unassigned) [Example A6-P1, 4-cyclopropyl-1,3-dimethyl-6-(2-oxo-5-(pyridin-2-yl)pyrrolidin-1-yl)-3,4-dihydropyrido[2,3-b]pyrazin-2(1H)-one] cannot be ordered by IC50: at most 0.01 µM for the first, at most 0.01 µM for the second.

`C[C@@H]1C(=O)N(C)c2ccc(N3C(=O)CCC3c3ccccc3)nc2N1C` (single isomer, unassigned) [Example A4-P2] and `CC1C(=O)N(C)c2ccc(N3C(=O)CCC3c3ccc(F)cc3F)nc2N1C1CC1` (single isomer, unassigned) [Example A7-P3, 4-cyclopropyl-6-(2-(2,4-difluorophenyl)-5-oxopyrrolidin-1-yl)-1,3-dimethyl-3,4-dihydropyrido[2,3-b]pyrazin-2(1H)-one] cannot be ordered by IC50: at most 0.01 µM for the first, at most 0.01 µM for the second.

`C[C@@H]1C(=O)N(C)c2cnc(N3C(=O)c4ccccc4C3c3cccnc3)nc2N1C` (stereo partly drawn) [Example A90-P4, (7R)-5,7,8-trimethyl-2-(1-oxo-3-(pyridin-3-yl)isoindolin-2-yl)-7,8-dihydropteridin-6(5H)-one] and `C[C@@H]1C(=O)N(C)c2ccc(N3C(=O)c4ccccc4C3c3cccnc3)nc2N1CCF` (single isomer, unassigned) [Example A55-P2, 4-(2-fluoroethyl)-1,3-dimethyl-6-(1-oxo-3-(pyridin-3-yl)isoindolin-2-yl)-3,4-dihydropyrido [2,3-b]pyrazin-2(1H)-one] cannot be ordered by IC50: at most 0.01 µM for the first, at most 0.01 µM for the second.

`CC1C(=O)N(C)c2ccc(N3C(=O)c4ccccc4C3c3cccnc3)nc2N1CC(F)(F)F` (centres unmarked) [Example A59-P2, 1,3-dimethyl-6-(1-oxo-3-(pyridin-3-yl)isoindolin-2-yl)-4-(2,2,2-trifluoroethyl)-3,4-dihydropyrido[2,3-b]pyrazin-2(1H)-one] and `C[C@@H]1C(=O)N(C)c2ccc(N3C(=O)c4c(cccc4S(C)(=O)=O)C3c3cccnc3)nc2N1C` (single isomer, unassigned) [Example A62-P1] cannot be ordered by IC50: at most 0.01 µM for the first, at most 0.01 µM for the second.

`CC1C(=O)N(C)c2ccc(N3C(=O)c4c(C(=O)O)cccc4C3c3ccc(F)cc3)nc2N1C1CC1` (single isomer, unassigned) [Example A81-P4] and `CC1C(=O)N(C)c2ccc(N3C(=O)c4c(cccc4C(C)(C)O)C3c3ccc(F)cc3)nc2N1C1CC1` (single isomer, unassigned) [Example A79-P4, 4-cyclopropyl-6-(1-(4-fluorophenyl)-4-(2-hydroxyprop-2-yl)-3-oxoisoindolin-2-yl)-1,3-dimethyl-3,4-dihydropyrido[2,3-b]pyrazin-2(1H)-one] cannot be ordered by IC50: at most 0.01 µM for the first, at most 0.01 µM for the second.

`CC1C(=O)N(C)c2ccc(-n3c(=O)c4ccccc4n3-c3ccc(Cl)cc3)nc2N1C1COC1` (centres unmarked) [Example A26-P2, 6-(1-(4-chlorophenyl)-3-oxo-1,3-dihydro-2H-indazol-2-yl)-1,3-dimethyl-4-(oxetan-3-yl)-3,4-dihydropyrido [2,3-b]pyrazin-2(1H)-one] and `CC1C(=O)N(C)c2ccc(N3C(=O)c4c(cccc4[S+](C)[O-])C3c3cccnc3)nc2N1C1CC1` (single isomer, unassigned) [Example A60-P2] cannot be ordered by IC50: at most 0.01 µM for the first, at most 0.01 µM for the second.

First: Cc1ccc(C2c3ccccc3C(=O)N2c2nc3c(cc2F)N(C)C(=O)[C@@H](C)O3)cn1 (stereo partly drawn) [Example A114-P3, (R)-7-fluoro-1,3-dimethyl-6-(1-(6-methylpyridin-3-yl)-3-oxoisoindolin-2-yl)-1H-pyrido[2,3-b][1,4]oxazin-2(3H)-one]
Second: CNC(=O)c1cccc2c1C(=O)N(c1ccc3c(n1)N(C1CC1)C(C)C(=O)N3C)C2c1cccnc1 (single isomer, unassigned) [Example A83-P3]
The IC50 of the first is higher: 0.1 to 1 µM for the first, at most 0.01 µM for the second. The second is the more potent here.
